Values of other authors, collected in US6399099B1, “Effervescent composition with dry extract of ginkgo biloba” (Dr. Willmar Schwabe GmbH & Co., priority 1995, dated 2002).

Details: neutral or slightly basic aqueous medium

## CC(C)(C)[C@]1(O)CC2OC(=O)CC23C(=O)OC2OC(=O)[C@H](O)C231 (stereo partly shown) [bilobalide]
  stability in aqueous medium: not stable
